Data published in patent US9770349B2, “Nanoporous stents with enhanced cellular adhesion and reduced neointimal formation” (University of Virginia Patent Foundation, priority 2002, dated 2017).
≈ marks a conversion by molar mass, not a printed value.

Experiment: Rapamycin solubility in solvent
Type: physicochemical
Settings: 100% ethanol, organic solvent or mixture, in ethanol (100% ethanol)

solubility: ~90 mg/mL (≈ 98.4 mM)
SMILES: CO[C@H]1C[C@@H]2CC[C@@H](C)[C@@](O)(O2)C(=O)C(=O)N2CCCC[C@H]2C(=O)O[C@H]([C@H](C)C[C@@H]2CC[C@@H](O)[C@H](OC)C2)CC(=O)[C@H](C)/C=C(\C)[C@@H](O)[C@@H](OC)C(=O)[C@H](C)C[C@H](C)/C=C/C=C/C=C/1C [rapamycin]
